Test results from patent US9265747B2, “Platinum (IV) complexes for use in dual mode pharmaceutical therapy” (Massachusetts Institute of Technology, priority 2008, dated 2016).
“Also recorded” adds a separate entry of the source.

What was measured:
[1] = tested on: NTera, HeLa, U2OS, A549, and MCF-7 cancer cells as well as MRC-5 normal fibroblasts; assay: MTT assay, control experiments in all cells; assay type: cell-based, human
Experimental: The ability of the compound 1 to promote cell death was determined using the MTT assay and the results were compared against those for cisplatin or -2 DCA using NTera, HeLa, U2OS, A549, and MCF-7 cancer cells as well as MRC-5 normal fibroblasts (FIG. 3). […] This enhanced potency of mitaplatin is consistent with the expected dual killing mechanism.
(§1) MTT Assay. Cytotoxic behavior of compound 1, DCA and cis-DDP were evaluated using the MTT assay. Solutions of the platinum complexes were freshly prepared in sterile PBS before use and quantitated by atomic absorption spectroscopy. Cells were seeded on a 96 well plate (1000 cells per well for NTera-2, U2OS, HeLa; 1400 per well for normal fibriblast; 500 per well for 7B, 10B, 175F and 150×2) in 100 μL DMEM media and incubated for 24 hours. The cells were then treated with compound 1, DCA or cis-DDP, separately at varying concentrations and incubated for 72 hours at 37° C. The cells were then treated with 20 μL of 3-(4,5-dimethylthiazol-2-yl)-2,5-diphenyltetrazolium bromide (MTT) (5 mg/mL in PBS) and incubated for 5 h. The medium was removed, the cells were lysed by adding 100 μl, of DMSO, and the absorbance of the purple formazan was recorded at 550 nm using a BioTek Synergy HT multi-detection microplate plate reader. Each well was performed in triplicate in three independent experiments for each cell line.

[2] = tested on: A2780/CP70, cisplatin-resistant human ovarian carcinoma; assay: MTT assay, A2780/CP70 cells; assay type: cell-based; details: 72 h; for IC50: A2780/CP70 cisplatin resistant cells
Experimental: (§2) A more negative membrane potential might promote translocation of the active, cationic form of cisplatin from the cytoplasm to mitochondria, thus diminishing platination of nuclear DNA. […] Thus, a pair of cisplatin sensitive A2780 and resistant A2780/CP70 ovarian cancer cells were studied (Table 1 and FIG. 10). […] (▴) with (A) cisplatin sensitive A2780 cells and (B) cisplatin resistant A2780/CP70 cells, after 72 h as determined by the MTT assay. The controls were cisplatin and c,c,t-[Pt(NH3)2Cl2(O2CCH3)2]. […] Results for the A2780/CP70 cells indicate that DCA plays a role, in this embodiment, in making cisplatin-resistant cells susceptible towards mitaplatin treatment.
as §1

[3] = tested on: A2780, human ovarian carcinoma; assay: MTT assay, A2780 cells; assay type: cell-based; details: A2780 cisplatin sensitive cells, 72 h
Experimental: as §2, §1

[4] = tested on: HeLa, human cervical cancer; assay: MTT assay, HeLa cells; assay type: cell-based; details: 72 hours
Experimental: (§3) Cell Line and Cell Culture. Healthy normal fibroblast GM61869, human cancer NTera-2, human cervical cancer HeLa, human osteosarcoma cell line U2OS were obtained from the ATCC. Cells were incubated at 37° C. in 5% CO2 and grown in DMEM medium supplemented with 10% fetal bovine serum and 1% penicillin/streptomycin. Cells were passed every 3 to 4 days and restarted from the frozen stock upon reaching pass number 20.
as §1

[5] = tested on: MCF-7, human breast adenocarcinoma; assay: MTT assay, MCF-7 cells; assay type: cell-based
Experimental: [The procedure below names another cell line; the source lists this cell line under the same test.] as §1

[6] = tested on: MRC-5, normal lung fibroblast; assay: MTT assay, MRC-5 normal cells; assay type: cell-based, human
Experimental: as §1

U2OS, human osteosarcoma = assay: MTT assay, U2OS cells; assay type: cell-based; details: 72 hours
Experimental: as §3, §1

[7] = tested on: A549, human lung carcinoma; assay: MTT assay, A549 cells; assay type: cell-based; details: 72 hours
Experimental: [The procedure below names another cell line; the source lists this cell line under the same test.] as §1

[8] = tested on: NTera-2, human testicular cancer; assay: MTT assay, NTera-2 cells; assay type: cell-based
Experimental: as §3, §1

A549 = assay: Annexin-V flow cytometry, A549 cells; assay type: cell-based, human; details: 10 and 20 μM, 72 h
Experimental: (§4) In order to quantify mitaplatin-induced apoptosis in cancer cells, an Annexin-V was performed and analyzed using flow cytometry. With this analysis, the percentage of apoptotic cells found was determined at 72 h after exposure of mitaplatin and cisplatin.

normal MRC-5 cells = assay: Annexin-V flow cytometry, normal MRC-5 cells; assay type: cell-based, human; details: 72 h, cisplatin at 10 μM
Experimental: as §4

[9] = tested on: normal fibroblasts and cancerous NTera-2 cells; assay: Co-culture of normal fibroblasts and cancerous NTera-2 cells; assay type: cell-based, human
Source text: Cisplatin kills both NTera-2 and normal fibroblast cells

HeLa = assay: Annexin-V flow cytometry, HeLa cells; assay type: cell-based, human; details: 10 and 20 μM, 72 h
Experimental: as §4

U2OS = assay: Annexin-V flow cytometry, U2OS cells; assay type: cell-based, human; details: 10 and 20 μM, 72 h
Experimental: as §4

[10] = tested on: human lung cancer A549 cells and normal human lung fibroblasts MRC-5; assay: LIVE/DEAD viability assay in co-culture; assay type: cell-based; details: co-culture A549 and MRC-5, exposure for 24 h
Experimental: Studies were also conducted on a co-culture of human lung cancer A549 cells and normal human lung fibroblasts MRC-5. […] The assay allowed for the simultaneous determination of live and dead cells in a co-culture by labeling live cells with calcein AM dye, which fluoresces only when cleaved by intracellular esterase enzymes, and ethidium […] (EthD-1), which only enters dead cells with disrupted cell membranes. […] Following mitaplatin or cisplatin exposure for 24 h, cells were stained with calcein AM (green fluorescence) and ethidium homodimer-1 (red fluorescence) to differentiate between live and dead cells, respectively.

[11] = tested on: healthy normal fibroblast cells; assay: JC-1 mitochondrial membrane potential assay, normal fibroblasts; assay type: cell-based; details: 100 μM, 4 h and 48 h
Source text: (§5) The following describes a mitochondrial membrane potential assay using compound 1. JC-1 Assay: Mitochondrial attack is associated with a drop in mitochondrial transmembrane potential (Δψm). For this reason Δψm, is an important parameter of mitochondrial function and has been used as an indicator for mitochondrial death. Variation in Δψm can be studied by evaluating the changes in fluorescence intensity of cells stained with lipophilic cationic dye, 5,5′,6,6′-tetrachloro-1,1′,3,3′-tetraethylbenzimidazolylcarbocyanine iodide (JC-1). It can selectively enter mitochondria and reversibly change color from green to red as the membrane potential increases.
(§6) The negative charge established by the mitochondrial membrane potential allows the lipophilic dye, bearing a delocalized positive charge, to enter the mitochondria where it accumulates. When the critical concentration is exceeded, J-aggregates form, which becomes red. In apoptotic cells, the mitochondrial membrane potential collapses, and the JC-1 can not accumulate within the mitochondria. In these cells, JC-1 remains in the cytoplasm in a green fluorescent monomeric form. Apoptotic cells, showing primarily green fluorescence, are easily differentiated from the healthy cells which show mainly red fluorescence.
(§7) JC-1 Assay. Normal and NTera-2 cells were cultured on cover slips to a density of 1×10^6 cells/mL and incubated overnight at 37° C. […]

[12] = tested on: healthy normal fibroblast cells; assay: TMRM mitochondrial membrane potential assay, normal fibroblasts; assay type: cell-based; details: listed as compound 1
Experimental: (§8) TMRM Assay. Analysis of mitochondrial membrane potential (Δψm) was carried out by using tetramethyl rhodamine methyl ester (TMRM). A similar procedure as mentioned above for the JC-1 assay was followed. Before fixing the cells, they were treated with 2 μM of TMRM for 30 min at 37° C.

[13] = Cyclic voltammetry, Pt(IV)/Pt(II) couple; assay type: physicochemical
Source text: Materials and Measurements. The complexes cis-[Pt(NH3)2Cl2], and c, c, t-[Pt(NH3)2Cl2(OH)2] were synthesized as previously described. Distilled water was purified by passage through a Millipore Milli-Q Biocel water purification system (18.2 MΩ) with a 0.22 μm filter. For the detection of cisplatin 1,2-d(GpG) intrastrand adduct, a monoclonal adduct specific antibody R-C18 was used which was a gift from Anti-cytochrome c (Ab-1) sheep polyclonal antibody was procured from Calbiochem. For AIF detection, rabbit polyclonal IgG antibody was used from Santa Cruz Biotechnology, Inc. Alexa Fluor® 488 labeled secondary antibody donkey anti-(sheep IgG) was obtained from Invitrogen for cytochrome c detection. For AIF detection, Alexa Fluor® 546 labeled secondary antibody goat anti-(rabbit IgG) was purchased from Invitrogen. […] JC-1 (5,5′, 6,6′-tetrachloro-1,1′,3,3′ tetraethylbenzimidazolylcarbocyanine iodide) was obtained from Cayman Chemicals. ^1H NMR and ^195Pt NMR spectra were recorded on a Bruker AVANCE-400 NMR spectrometer with a Spectro Spin superconducting magnet in the Massachusetts Institute of Technology Department of Chemistry Instrumentation Facility (MIT DCIF). […] Fluorescence imaging studies were performed with an Axiovert 200M inverted epifluorescence microscope (Zeiss, Thornwood, N.Y.) equipped with an EM-CCD digital camera C9100 (Hamamatsu, Japan). […]

NTera-2 cells [14] = assay: Immunofluorescence detection of cytochrome c and AIF; assay type: cell-based, human; details: treated NTera-2 cells
Experimental: Detection of cytochrome c and AIF. Normal fibroblast or Ntera-2 cells were seeded on microscope coverslips (1 cm) at a confluence of 1600 cells per slip and incubated overnight at 37° C. in DMEM. The medium was changed and compound 1 was added to a final 500 μM. The cells were incubated for 24 or 48 h at 37° C. Medium was then removed and the cells were incubated with fixing solution for 1 h at room temperature followed by three washes with phosphate buffered saline (PBS, pH 7.4). Cells were then fixed with 4% paraformaldehyde in 0.1 M phosphate buffer (pH 7.4) at room temperature for 1 h, washed twice with PBS. Cells were then permeabilize with 0.1% Triton-X100 in PBS for 30 min, followed by six washes with PBS. Cells were then rinsed with blocking buffer (PBS, 0.1% goat serum, 0.075% glycin). Cells were then incubated for 1 h at 37° C. with the anti-cytochrome c (anti-cytochrome c (Ab-1) Sheep pAb, Calbiochem) antibody or AIF (AIF (H-300), Santa Cruz Biotechnology Inc.) antibody both diluted 1:50 in blocking buffer, washed twice with blocking buffer and incubated at 37° C. with Alexa Fluor 488 donkey anti sheep IgG (Invitrogen) antibody for cytochrome c release and Alexa Fluor 546 goat anti-rabbit IgG (Invitrogen) antibody for AIF (dilution 1:50 in blocking buffer) for 1 h. […]

NTera-2 cells [15] = assay: TMRM mitochondrial membrane potential assay, NTera-2 cells; assay type: cell-based, human; details: listed as compound 1
Experimental: as §8

[16] = tested on: human cancer NTera-2 cells; assay: JC-1 mitochondrial membrane potential assay, NTera-2 cells; assay type: cell-based; details: 100 μM, 4 h and 48 h
Source text: as §5, §6, §7

In the case of `CC(=O)[O][Pt]([NH2])([NH2])([Cl])([Cl])[O]C(C)=O` [c,c,t-[Pt(NH3)2Cl2(O2CCH3)2]], the “activity relative to mitaplatin” value [1] is reported as “less active by several fold than mitaplatin” and the “resistance of A2780/CP70 cells to the compound” value ([2]; A2780/CP70 cells) is reported as “much more resistant”.
With `O=C(O)C(Cl)Cl` [DCA, Dichloroacetic acid] the IC50 ([3]; Homo sapiens) was > 120 µM, the IC50 ([4]; Homo sapiens) was > 8 µM and the IC50 ([2]; Homo sapiens) was > 120 µM. For the same molecule, the IC50 ([5]; Homo sapiens, MCF7, 72 hours) was > 100 µM, the IC50 ([6]; Homo sapiens, MRC5, 72 hours) was > 100 µM and the IC50 (U2OS, human osteosarcoma; Homo sapiens) was > 100 µM. For the same molecule, the IC50 ([7]; Homo sapiens) was > 200 µM and the IC50 ([8]; Homo sapiens, NTERA2, 72 hours) was > 0.4 µM.
With cis-[Pt(NH3)2Cl2] [Cisplatin] the “apoptosis (Annexin-V)” value (A549) was “Apoptosis was detected”, the “apoptosis (Annexin-V)” value (normal MRC-5 cells) was “showed apoptosis” and the IC50 [3] was 0.56 µM. For the same molecule, the IC50 [4] was 1.2 µM, the “cell killing in co-culture” value [9] was “kills both the normal and cancer cells” and the IC50 [2] was 6 µM. For the same molecule, the “apoptosis (Annexin-V)” value (HeLa) was “Apoptosis was detected”, the “apoptosis (Annexin-V)” value (U2OS) was “Apoptosis was detected” and the IC50 ([5]; 72 hours) was 13 µM. The IC50 ([6]; 72 hours) was 9.5 µM, the IC50 (U2OS, human osteosarcoma) was 3.9 µM and the IC50 [7] was 12 µM. It also gave an IC50 ([8]; 72 hours) of 0.043 µM and an IC50 ([8]; 72 hours, listed as cis-DDP) of 0.05 µM.
For `[NH2][Pt]([NH2])([Cl])([Cl])([O]C(=O)C(Cl)Cl)[O]C(=O)C(Cl)Cl` [Mitaplatin, c,c,t-[Pt(NH3)2Cl2(O2CCHCl2)2]], the “apoptosis (Annexin-V)” value (A549) was “Apoptosis was detected”, the “cell death in co-culture, LIVE/DEAD staining” value [10] was “selectively induced cell death in human cancer A549 cells, but not in normal MRC-5 cells” and the “apoptosis (Annexin-V)” value (normal MRC-5 cells) was “did not show any detectable apoptosis”. The “effect on mitochondria (JC-1 fluorescence)” value [11] was “had no effect”, the “mitochondrial membrane potential (Δψm), TMRM” value [12] was “had no effect; also recorded: does not change the Δψm” and the IC50 [3] was 1.1 µM. The “reduction potential, Pt(IV)/Pt(II) couple” value ([13]; pH 6.0, 25° C.) was −0.152 V vs Ag/AgCl, the “reduction potential, Pt(IV)/Pt(II) couple” value ([13]; pH 7.4, irreversible cyclic voltammetric response, 25° C.) was ~−0.173 V vs Ag/AgCl and the IC50 [4] was 2 µM. The “cell killing in co-culture” value [9] was “selectively kills the cancer cells”, the IC50 [2] was 3.34 µM and the “apoptosis inducing factor AIF location” value (NTera-2 cells [14]) was “located in the nucleus”. The cytochrome c distribution (NTera-2 cells [14]) was “diffusely distributed in the cytoplasm”, the “mitochondrial membrane potential (Δψm), TMRM” value (NTera-2 cells [15]) was “significantly depolarizes; also recorded: reverses the hyperpolarization” and the “apoptosis (Annexin-V)” value (HeLa) was “Apoptosis was detected”. For the same molecule, the “apoptosis (Annexin-V)” value (U2OS) was “Apoptosis was detected”, the “effect on mitochondria (JC-1 fluorescence)” value [16] was “attacks the mitochondria” and the IC50 ([5]; 72 hours) was 18 µM. The IC50 ([6]; 72 hours) was 18.3 µM, the IC50 (U2OS, human osteosarcoma) was 6.4 µM and the IC50 [7] was 14 µM. The IC50 ([8]; 72 hours) was 0.051 µM.
